What follows are molecules tested on Daudi Cell Culture (assay: Compound primary screening in Daudi cell culture). Details: Homo sapiens, 168 h; Daudi cells, 1250 cells per well, reads on Day 7.
Type: cell-based
Procedure: Compound Primary Screening
1. Materials and Supplies
Plastic ware and consumables needed for this experiment include: Cell Culture media; Evaporation Buffer media; 100% DMSO; 96 well U-bottom sterile culture plates; 250 mL bottle; 1.5 mL Opaque amber epi tubes; Epi Tube rack; 300 mL reservoirs; 25 mL reservoir; 25 mL serological pipette tips; 5 mL serological pipette tips P1000 Pipette Tips; and P200 Pipette Tips.
Equipment needed for this experiment include: Viaflo 384 liquid handler; Eppendorf serological pipette; Eppendorf P1000 Pipette; and Eppendorf P200 Pipette
Daudi Cell Culture is also needed for this experiment.
Lastly, compounds (e.g., the compounds of this invention) to be tested are needed.
All steps were performed in a sterile environment inside the Biosafety cabinet.
A 96 well u-bottom plate was prepared by writing the experiment number, plate number, date and initials in the top right corner of the plate lid. With a sterile 300 ml reservoir, and 25 ml serological pipette, evaporation buffer media was pipetted into reservoir in 25 ml increments. Using the liquid handler, 150 ul of evaporation buffer media was pipetted from reservoir into rows A and H, and Columns 1 and 12 of the 96 well u-bottom plate. Cell cultures were counted to obtain the density of cells per ml, and the culture viability. The cell density information was used to obtain 1,000,000 cells from culture using a 5 mL serological pipette into an epi tube. The cell density information from the culture was used to calculate the number of cells and volume of media needed for the assay to seed 1250 cells in 130 ul of media per available culture well in the 96 well u-bottom plate. Rows B through F were used for cells (50 wells in total), with row G left for an empty media control. The calculation was overestimated by 10 mL to account for the dead volume in the 300 ml reservoir. Once the media volume was calculated, the appropriate volume of media was pipetted in 25 mL increments into the 250 mL bottle using a 25 mL serological pipette. The 250 ml bottle was capped tightly, and placed into a 37° C. water bath for 2 minutes. While the culture media was warming, 10 mL of fresh media was pipetted from the 500 mL culture media bottle into a sterile 25 mL reservoir. Using the Eppendorf multichannel pipette, 130 ul of media was pipetted from the 25 mL reservoir into row G of the 96 well u-bottom plate. Once the 250 mL bottle of media was warmed, the volume of culture needed was pipetted into the bottle, and mixed gently with a 25 mL serological pipette as to not create bubbles, and then the contents of the bottle were pipetted into a new 300 mL reservoir. Using the liquid handler, 130 ul of culture was pipetted from the 300 mL reservoir into rows B through F of the 96 well u-bottom plate. Once the culture was added, the plate was placed into a 37° C. incubator until the compound master plate was prepared for use.
Two 96 well u-bottom plates were prepared by writing the master plate name in the upper right corner of the plate lid. Labeling one DMSO master and the other Media Master. The compounds of interest were obtained from the laboratory freezer, and placed into a 25 well storage box with a lid, and set the box aside. The compounds were vortexed after thawing but before use. Using an automatic multichannel pipette, 20 ul of 100% DMSO was pipetted into wells B3-B11 through G3-G11 of the DMSO master plate. For each compound on the master plate, 50 ul of the compound were pipetted in the appropriate well of row 2 (reference plate map to determine appropriate well). A serial dilution was prepared beginning by aspirating 20 ul from row 2 and mixing with row 3, repeating until row 11 was reached. Using the liquid handler, 194 ul of Daudi media was dispensed into wells B2-B11 through G2-G11 of the Media master plate. Using the liquid handler, 6 ul from the DMSO master plate was aspirated and dispensed into the media master plate, mixing 100 ul twice. […]

`CC(C)OC(=O)Nc1ccc(-c2ncc(-c3ccc(NC4(C)COC4)cc3S(=O)(=O)NC(C)(C)C)s2)cc1` [Compound I4] and `CC(=O)Nc1ccc(-c2cnc(-c3ccc(NC(=O)OC(C)C)cc3)s2)c(S(=O)(=O)NC(C)(C)C)c1` [Compound E11] cannot be ordered by EC50: less than 5 µM for the first, less than 5 µM for the second.

Going from `CC(C)OC(=O)Nc1ccc(-c2ncc(-c3ccc(N4CC(c5ccccc5)OC4=O)cc3S(=O)(=O)NC(C)(C)C)s2)cc1` (stereo not drawn) [Compound J29, isopropyl N-[4-[5-[2-(tert-butylsulfamoyl)-4-(2-oxo-5-phenyl-oxazolidin-3-yl)-phenyl]thiazol-2-yl]phenyl]carbamate] to `CC(C)OC(=O)Nc1ccc(-c2ncc(-c3ccc(NC(=O)c4ccccc4)cc3S(=O)(=O)NC(C)(C)C)s2)cc1` [Compound H9], the EC50 falls from greater than 10 µM to less than 1 µM.

`CC(C)OC(=O)Nc1ccc(-c2ncc(-c3ccc(NC(=S)NCc4ccccc4)cc3S(=O)(=O)NC(C)(C)C)s2)cc1` [Compound L8] and `CC(C)NC(=S)Nc1ccc(-c2ncc(-c3ccc(NC(=O)NCc4ccccc4)cc3S(=O)(=O)NC(C)(C)C)s2)cc1` [Compound L10] cannot be ordered by EC50: less than 1 µM for the first, less than 5 µM for the second.

`CC(=O)Nc1ccc(-c2cnc(-c3ccc(NC(=S)NC(C)C)cc3)s2)c(S(=O)(=O)N[C@H](CO)C(C)C)c1` [Compound D18] and `COC(=O)[C@H](C)NS(=O)(=O)c1cc(NC(C)=O)ccc1-c1cnc(-c2ccc(NC(=S)NC(C)C)cc2)s1` [Compound D21] cannot be ordered by EC50: greater than 10 µM for the first, greater than 10 µM for the second.

Going from `COCCC(=O)NCc1ccc(-c2cnc(-c3ccc(NC(=O)OC(C)C)cc3)s2)c(S(=O)(=O)NC(C)(C)C)c1` [Compound O2] to `CC(=O)NCc1ccc(-c2cnc(-c3ccc(NC(=O)OC(C)C)cc3)s2)c(S(=O)(=O)NC(C)(C)C)c1` [Compound Q1, isopropyl N-[4-[5-[4-(acetamidomethyl)-2-(tert-butylsulfamoyl)phenyl]thiazol-2-yl]phenyl]carbamate], the EC50 falls from greater than 10 µM to less than 10 µM. The second is the more potent here.

Going from `CC(=O)Nc1ccc(-c2cnc(-c3ccc(NC(=S)NC(C)C)cc3)s2)c(S(=O)(=O)NCc2ccccn2)c1` [Compound D3] to `CC(C)NC(=S)Nc1ccc(-c2ncc(-c3ccc(NC(=O)NCc4ccccn4)cc3S(=O)(=O)NC(C)(C)C)s2)cc1` [Compound M4], the EC50 falls from greater than 10 µM to less than 10 µM.

`CC(C)OC(=O)Nc1ccc(-c2ncc(-c3ccc(NC(=O)CCc4ccccc4)cc3S(=O)(=O)NC(C)(C)C)s2)cc1` [Compound B6] and `CC(C)OC(=O)Nc1ccc(-c2ncc(-c3ccc(NC(=O)OCc4ccccc4)cc3S(=O)(=O)NC(C)(C)C)s2)cc1` [Compound H5] cannot be ordered by EC50: less than 1 µM for the first, less than 1 µM for the second.

`Cn1ccnc1Nc1ccc(-c2cnc(-c3ccc(N)cc3)s2)c(S(=O)(=O)NC(C)(C)C)c1` [Compound E16] and `CC(=O)Nc1ccc(-c2ncc(-c3ccc(N)cc3S(=O)(=O)NC(C)(C)C)s2)cc1` [Compound E4] cannot be ordered by EC50: greater than 10 µM for the first, greater than 10 µM for the second.

`CNCCCNS(=O)(=O)c1cc(NC(C)=O)ccc1-c1cnc(-c2ccc(NC(=S)NC(C)C)cc2)s1` [Compound D23] and `CNCCNS(=O)(=O)c1cc(NC(C)=O)ccc1-c1cnc(-c2ccc(NC(=S)NC(C)C)cc2)s1` [Compound D29] cannot be ordered by EC50: greater than 10 µM for the first, greater than 10 µM for the second.

`C=C(C)COC(=O)Nc1ccc(-c2cnc(-c3ccc(NC(=O)OC(C)C)cc3)s2)c(S(=O)(=O)NC(C)(C)C)c1` [Compound B5] and `CCOC(=O)Nc1ccc(-c2cnc(-c3ccc(NC(=O)OC(C)C)cc3)s2)c(S(=O)(=O)NC(C)(C)C)c1` [Compound H6] cannot be ordered by EC50: less than 1 µM for the first, less than 1 µM for the second.

`CC(C)NC(=S)Nc1ccc(-c2ncc(-c3ccc(NC(=O)NCc4ccncc4)cc3S(=O)(=O)NC(C)(C)C)s2)cc1` [Compound M2] and `CC(C)NC(=S)Nc1ccc(-c2ncc(-c3ccc(NC(=O)NCc4cccc(O)c4)cc3S(=O)(=O)NC(C)(C)C)s2)cc1` [Compound N2] cannot be ordered by EC50: less than 5 µM for the first, less than 10 µM for the second.

`CC(C)OC(=O)Nc1ccc(-c2ncc(-c3ccc(-c4cnc[nH]4)cc3S(=O)(=O)NC(C)(C)C)s2)cc1` [Compound A6] and `CC(C)OC(=O)Nc1ccc(-c2ncc(-c3ccc(O)cc3S(=O)(=O)NC(C)(C)C)s2)cc1` [Compound I2, isopropyl N-[4-[5-[2-(tert-butylsulfamoyl)-4-hydroxy-phenyl]thiazol-2-yl]phenyl]carbamate] cannot be ordered by EC50: less than 5 µM for the first, less than 5 µM for the second.

`CC(=O)Nc1ccc(-c2cnc(-c3ccc(NC(=O)OCC(C)C)cc3)s2)c(S(=O)(=O)NC(C)(C)C)c1` [Compound G1] and `CCOC(=O)Nc1ccc(-c2ncc(-c3ccc(NC(C)=O)cc3S(=O)(=O)NC(C)(C)C)s2)cc1` [Compound G3] cannot be ordered by EC50: less than 5 µM for the first, less than 1 µM for the second.

`CC(=O)Nc1ccc(-c2cnc(-c3ccc(NC(=S)NC(C)C)cc3)s2)c(S(=O)(=O)NCCN)c1` [Compound D17] and `CC(=O)Nc1ccc(-c2cnc(-c3ccc(NC(=S)NC(C)C)cc3)s2)c(S(=O)(=O)NCCO)c1` [Compound D28] cannot be ordered by EC50: greater than 10 µM for the first, greater than 10 µM for the second.

`CC(C)OC(=O)Nc1ccc(-c2ncc(-c3ccc(NC(=O)[C@@H]4CCCN4)cc3S(=O)(=O)NC(C)(C)C)s2)cc1` [Compound H1] and `CC(C)OC(=O)Nc1ccc(-c2ncc(-c3ccc(NC(=O)[C@H]4CCCN4)cc3S(=O)(=O)NC(C)(C)C)s2)cc1` [Compound H2] cannot be ordered by EC50: less than 5 µM for the first, less than 5 µM for the second.

`COC(=O)Nc1ccc(-c2cnc(-c3ccc(NC(=S)NC(C)C)cc3)s2)c(S(=O)(=O)NC(C)(C)C)c1` [Compound L7] and `CC(C)NC(=S)Nc1ccc(-c2ncc(-c3ccc(NC(=O)NCc4cn[nH]c4)cc3S(=O)(=O)NC(C)(C)C)s2)cc1` [Compound N4] cannot be ordered by EC50: greater than 10 µM for the first, greater than 10 µM for the second.

`CC(=O)Nc1ccc(-c2cnc(-c3ccc(NCC(C)(C)O)cc3)s2)c(S(=O)(=O)NC(C)(C)C)c1` [Compound J12, N-[3-(tert-butylsulfamoyl)-4-[2-[4-[(2-hydroxy-2-methyl-propyl)amino]phenyl]thiazol-5-yl]phenyl]acetamide] and `CC(=O)Nc1ccc(-c2cnc(-c3ccc(NCC(C)O)cc3)s2)c(S(=O)(=O)NC(C)(C)C)c1` (stereo not drawn) [Compound J11] cannot be ordered by EC50: greater than 10 µM for the first, greater than 10 µM for the second.

`CC(C)OC(=O)Nc1ccc(-c2ncc(-c3ccc(NS(=O)(=O)Cc4ccccc4)cc3S(=O)(=O)NC(C)(C)C)s2)cc1` [Compound E2] and `CC(C)OC(=O)Nc1ccc(-c2ncc(-c3ccc(NS(=O)(=O)c4ccccc4)cc3S(=O)(=O)NC(C)(C)C)s2)cc1` [Compound E1] cannot be ordered by EC50: greater than 10 µM for the first, greater than 10 µM for the second.

`CC(C)N(C)C(=O)Nc1ccc(-c2ncc(-c3ccc(N4CCCC4=O)cc3S(=O)(=O)NC(C)(C)C)s2)cc1` [Compound A7] and `CC(=O)Nc1ccc(-c2cnc(-c3ccc(OC(=O)NC(C)C)cc3)s2)c(S(=O)(=O)NC(C)(C)C)c1` [Compound A5] cannot be ordered by EC50: less than 10 µM for the first, less than 5 µM for the second.

First: CC(C)OC(=O)NCc1ccc(-c2cnc(-c3ccc(NC(=O)OC(C)C)cc3)s2)c(S(=O)(=O)NC(C)(C)C)c1 [Compound P9]
Second: CC(C)OC(=O)Nc1ccc(-c2ncc(-c3ccc(NC(=O)OCc4ncc[nH]4)cc3S(=O)(=O)NC(C)(C)C)s2)cc1 [Compound B14]
The EC50 of the first is higher: greater than 10 µM for the first, less than 10 µM for the second. The second is the more potent here.

Compared with `CC(C)NC(=S)Nc1ccc(-c2ncc(-c3ccc(NC(=O)NCc4cncnc4)cc3S(=O)(=O)NC(C)(C)C)s2)cc1` [Compound M5], `CC(C)OC(=O)Nc1ccc(-c2ncc(-c3ccc(NC(=O)OCc4ccncc4)cc3S(=O)(=O)NC(C)(C)C)s2)cc1` [Compound B4] is lower in EC50: greater than 10 µM for the first, less than 1 µM for the second.

`CC(=O)Nc1ccc(-c2cnc(-c3ccc(N)cc3S(=O)(=O)NC(C)(C)C)s2)c(S(=O)(=O)NC(C)(C)C)c1` [Compound E8] and `CNS(=O)(=O)Nc1ccc(-c2ncc(-c3ccc(NC(C)=O)cc3S(=O)(=O)NC(C)(C)C)s2)cc1` [Compound G9] cannot be ordered by EC50: greater than 10 µM for the first, greater than 10 µM for the second.

Work on `COCCS(=O)(=O)Nc1ccc(-c2ncc(-c3ccc(NC(C)=O)cc3S(=O)(=O)NC(C)(C)C)s2)cc1` [Compound G8] yielded an EC50 greater than 10 µM.

— patent US11291655B2, “RAD51 inhibitors” (Cyteir Therapeutics, Inc., priority 2017, dated 2022)
